# The source made the active and inactive calls. The calls are words filed in the database; no cut-off is given here.
# What was measured:
# Rattus norvegicus [1] = test: Toxicity in ip dosed F344 rat lateral thorax transplanted with dorsal skin of LEW rat assessed as concentration required for cause death; format: organism-based; details: in vivo
# Rattus norvegicus [2] = test: Immunosuppressive activity in F344 rat lateral thorax transplanted with dorsal skin of LEW rat assessed as increase of skin graft survival time at 3 mg/kg, ip; format: functional; details: route intraperitoneal
# spleen = test: Inhibition of serine palmitoyltransferase in mouse spleen cells; format: cell-based
# Rattus norvegicus [3] = test: Immunosuppressive activity in F344 rat lateral thorax transplanted with dorsal skin of LEW rat assessed as increase of skin graft survival time at 1 mg/kg, ip; format: functional; details: route intraperitoneal
# MCF7 = test: Antiproliferative activity against human MCF7 cells assessed as growth inhibition after 78 hrs by WST-1 assay; format: functional, cell-based
# LNCAP-AI = test: (§1) Antiproliferative activity human LNCAP-AI cells assessed as growth inhibition after 78 hrs by WST-1 assay; format: functional, cell-based
# SK-BR-3 = test: Antiproliferative activity against human SK-BR-3 cells assessed as growth inhibition after 78 hrs by WST-1 assay; format: functional, cell-based
# SW-620 = test: Antiproliferative activity against human SW620 cells assessed as growth inhibition after 78 hrs by WST-1 assay; format: functional, cell-based
# MDA-MB-231 = test: Antiproliferative activity against human MDA-MB-231 cells assessed as growth inhibition after 78 hrs by WST-1 assay; format: functional, cell-based
# HCT-116 = test: Antiproliferative activity against human HCT116 cells assessed as growth inhibition after 78 hrs by WST-1 assay; format: functional, cell-based
# Mus musculus = test: Toxicity in human MGC803 cells xenografted nude mouse at 10 mg/kg for 20 days; format: organism-based, MGC-803; set-up: dose 10 mg/kg; details: in vivo, 480 h
# MGC-803 = test: Antitumor activity against human MGC803 cells xenografted in nude mouse assessed as inhibition of tumor growth at 10 mg/kg for 20 days; format: functional, organism-based; set-up: dose 10 mg/kg
# [4] = Immunosuppressive activity in BALB/c/C57BL/6 mouse T cells assessed as inhibition of alloantigen-induced cell proliferation after 96 hrs by measuring [3H]thymidine uptake by mixed lymphocyte reaction assay; format: functional, cell-based; details: BALB/c/C57BL/6, T-cell
# [5] = as §1; format: functional, cell-based
# Rattus norvegicus [6] = test: Immunosuppressive activity in rat assessed as increase of skin graft survival time at 0.1 mg/kg; format: functional
smiles,measurement,setting,value
CCCCCCCCCCCCCCCCCCC(N)(CO)CO,Activity,Rattus norvegicus [1],10 mg/kg
CCCCCCCCCCCCCCC(N)(CO)CO,Time,Rattus norvegicus [2],45.5 days
same,inhibition,spleen,inactive
same,Activity,Rattus norvegicus [1],10 mg/kg
same,Time,Rattus norvegicus [3],37.3 days
CCCCCCC(O)CCCCCCCCC[C@@H](O)[C@H](O)C(N)(CO)CO (stereo partly drawn),Time,Rattus norvegicus [2],11 days
same,Activity,Rattus norvegicus [1],100 mg/kg
same,Time,Rattus norvegicus [3],9.2 days
CCCCCCCCc1ccc(CC[C@](N)(/C=C/P(=O)(O)O)CO)cc1,growth inhibition (GI),MCF7,inactive
same,growth inhibition (GI),LNCAP-AI,inactive
CCCCCCCCc1ccc(CC[C@](N)(CO)COP(=O)(O)O)cc1,growth inhibition (GI),SK-BR-3,inactive
same,growth inhibition (GI),SW-620,inactive
same,growth inhibition (GI),MCF7,inactive
same,growth inhibition (GI),MDA-MB-231,inactive
same,growth inhibition (GI),HCT-116,inactive
C/C=C/C[C@@H](C)[C@@H](O)[C@H]1C(=O)N[C@@H](CC)C(=O)N(C)CC(=O)N(C)[C@@H](CC(C)C)C(=O)N[C@@H](C(C)C)C(=O)N(C)[C@@H](CC(C)C)C(=O)N[C@@H](C)C(=O)N[C@H](C)C(=O)N(C)[C@@H](CC(C)C)C(=O)N(C)[C@@H](CC(C)C)C(=O)N(C)[C@@H](C(C)C)C(=O)N1C [CYCLOSPORINE],Time,Rattus norvegicus [2],10.8 days
same,Time,Rattus norvegicus [3],7.3 days
CCCCCCCCc1ccc(CCC(N)(CO)CO)cc1 [FINGOLIMOD],IC50,"SK-BR-3; SK-BR-3, 78 h",5 µM
same,IC50,"SW-620; SW-620, 78 h",5 µM
same,Time,Rattus norvegicus [2],52 days
same,inhibition,spleen,inactive
same,IC50,"MCF7; MCF7, 78 h",5 µM
same,Time,Rattus norvegicus [3],39.5 days
same,Activity,Mus musculus,Toxic
same,IC50,"MDA-MB-231; MDA-MB-231, 78 h",5 µM
same,IC50,"HCT-116; HCT-116, 78 h",5 µM
same,growth inhibition (GI),MGC-803,Active
same,IC50,[4],6.1 nM
same,IC50,[5],5 µM
CCCCCCC(=O)CCCCCC/C=C/C[C@@H](O)[C@H](O)[C@@](N)(CO)C(=O)O [MYRIOCIN],inhibition,spleen,Active
same,Activity,Rattus norvegicus [1],1 mg/kg
same,Time,Rattus norvegicus [6],2 days
same,IC50,[4],3 nM

# From ChEMBL document CHEMBL1772937, “Fingolimod (FTY720): a recently approved multiple sclerosis drug based on a fungal secondary metabolite” (J Nat Prod, 2011)
